This is an account of results in US9606124B2, “Methods of detecting and treating stem-cell containing solid tumors” (The Regents of The University of Michigan, priority 2008, dated 2017).

Series [1] deals with CXCR1-positive population of SUM159 cells. Description: Flow cytometry of the CXCR1-positive population of SUM159 cells. Type of series: cell-based, human. The settings on record: repertaxin, repertaxin plus anti-FAS-ligand, FAS agonist. The procedure: Flow cytometry analysis. […] CD95/FAS staining were performed utilizing an anti-CD95 labeled APC (1:20, BD biosciences). […] Fresh cells were stained with 1 μg/ml PI (Sigma) for 5 min for viability.
On the technique in general: In flow cytometry, cells or beads pass a laser one at a time.

The conditions of series [2]: phase I and phase II clinical trials, cited from earlier work.
Series [3] deals with SUM159 PTEN-siRNA and SUM159 Ad-FAK cells. Description: Repertaxin on SUM159 PTEN-siRNA and SUM159 Ad-FAK cells (western, immunofluorescence, MTT, ALDEFLUOR). Type of series: cell-based, human. The following applies: for FAK and AKT activity / FOXO3A activation in cells with PTEN deletion or FAK overexpression: 100 nM, two days. An excerpt:
(§1) Cell viability. […] Nuclei were counterstained with DAPI/antifade (Invitrogen).
ALDEFLUOR assay. The ALDEFLUOR kit (StemCell technologies) was used to isolate the population with high ALDH enzymatic activity using a FACStarPLUS (Becton Dickinson) as previously described (Ginestier et al. Cell Stem Cell 1:555-567, herein incorporated by reference in its entirety). In order to eliminate cells of mouse origin from the xenotransplanted tumors, cell population was stained with an anti-H2Kd antibody (BD biosciences, 1/200, 20 min on ice) followed by staining with a secondary antibody labeled with phycoerythrin (PE) (Jackson labs, 1/250, 20 min on ice).
(§2) Western blotting. Cells were lysed in a laemmli buffer and loaded onto SDS-polyacrylamide gels. Blots were incubated with the respective primary antibodies diluted in TBST (containing 0.1% Tween20 and 2% BSA) either overnight at 4o, or 2 hours at room temperature. Blots were washed and incubated with appropriate secondary antibodies (GE Healthcare, UK) and detected using SuperSignal West Pico Chemiluminescent Substrate (Pierce).
(§3) Immunostaining. For immunofluorescent staining, sorted CXCR1-positive cells were fixed with 95% methanol at −20° C. for 10 minutes. Cells were rehydrated in PBS and incubated with respective antibodies at room temperature for 1 hour. Primary antibodies used were P-FAK (1:50, Cell Signaling Technology), P-AKT (1:300, Cell Signaling Technology), and FOXO3a (1:250, Cell Signaling Technology). Slides were then washed and incubated 30 minutes with PE conjugated secondary antibodies (Jackson labs). The nuclei were counterstained with DAPI/antifade (Invitrogen) and coverslipped. […] Immunohistochemistry for the detection of ALDH1 (1:100, BD biosciences), P-FAK, P-AKT, FOXO3a expression was done on paraffin section (Ginestier et al. Am. J Pathol. 161:1223-1233, herein incorporated by reference in its entirety). Staining was done utilizing the Histostainplus kit (Zymed laboratories). Diaminobenzidine (DAB) or 3-amino-9-ethylcarbazole (AEC) was used as chromogen and sections were counterstained with hematoxylin.
Virus infection. […] All lentiviral constructs were prepared by the University of Michigan Vector. An adenoviral construct for the overexpression of FAK (Ad-FAK-GFP) was also utilized (Luo et al. Cancer Res. 69:466-474, herein incorporated by reference in its entirety). Cells infection with different vectors was performed as previously described (Charafe-Jauffret et al. Cancer Res. 69:1302-1313, herein incorporated by reference in its entirety). Efficiency of infection was verified by measuring the percentage of DsRed or GFP expressing cells.

The test system of series [4] is SUM159 cell line and human breast cancer xenografts MC1, UM2, UM3. Description: Tumor growth of breast cancer xenografts in the mammary fat pad. Type of series: in vivo, NOD/SCID mice. The settings on record: repertaxin 15 mg/Kg s.c. twice a day 28 days, docetaxel 10 mg/Kg i.p. once a week, start at tumor size about 4 mm. The procedure: For each sample, 50,000 cells were injected into the mammary fat pad of NOD-SCID mice which were monitored for tumor size. Injections were started when the tumor size was about 4 mm.
Animal model. […] Cells from these tumors were transplanted orthotopically in the humanized cleared fat-pad of NOD/SCID mice, without cultivation in vitro. […] 50,000 cells from each xenotransplants were injected in the humanized fat pad of NOD/SCID mice and monitored the tumor growth. […] The animals were euthanized when the tumors were approximately 1.5 cm in the largest diameter, to avoid tumor necrosis and in compliance with regulations for use of vertebrate animal in research. A portion of each fat pad injected was fixed in formalin and embedded in paraffin for histological analysis. The rest of the tumor cells were re-implantated into secondary NOD/SCID mice. Serial dilutions of cells were utilized for the re-implantation with injection of 10,000, 1,000, and 100 cells for each treated tumor.

For another series, the system named is ALDH1. Description: Immunohistochemistry of ALDH1 in xenotransplants. The settings on record: compared to untreated tumors. In kind it is in vivo, NOD/SCID mice. The procedure:
as §3

In series [5] the test system is HCC1954 cells. Description: MTT assay, cell viability of HCC1954 cells. In kind it is cell-based, human. The settings on record: repertaxin 100 nM, antibodies 10 μg/ml.
Source text: as §1
On the technique in general: Tetrazolium assays rely on reduction of a dye to a coloured formazan, in cell work by metabolically active cells.

Another series concerns MDA-MB-453 cells. Description: MTT assay, cell viability of MDA-MB-453 cells. Type of series: cell-based, human. The following applies: MDA-MB-453 (PTEN mutation), repertaxin 100 nM. From the text:
Cell viability. […] After one day, treatment with repertaxin was started. […]. […] Nuclei were counterstained with DAPI/antifade (Invitrogen).

The subject of the next series is phospho-FAK. Description: Immunohistochemistry of phospho-FAK in xenotransplants. Set-up: species or system NOD/SCID mice. The settings on record: mouse, in vivo. The procedure: as §3
The test system of series [6] is FAK Tyr397 and AKT Ser473 phosphorylation. Briefly: Western blotting of FAK/AKT activation in MDA-MB-453. In kind it is cell-based, human. The procedure: as §2
On the technique in general: In western blotting, separated proteins are transferred to a membrane and probed.

Series [7] concerns normal mammary epithelial cells. Briefly: Mammosphere formation by normal mammary epithelial cells. In kind it is cell-based, human. The following applies: repertaxin 100 nM for four to fifteen days adherent, then suspension.
In series [8] the test system is HCC1954 cells. Description: Metastasis formation after intracardiac injection of HCC1954 cells (bioluminescence). The settings on record: 250,000 cells intracardiac, repertaxin 15 mg/kg s.c. twice a day 28 days vs saline. Type of series: in vivo, NOD/SCID mice. The procedure:
Intracardiac inoculation. […] Twelve hours after intracardiac injections, mice were begun on twice per day repertaxin injections or saline for the controls. Bioluminescence detection. Baseline bioluminescence was assessed before inoculation and each week thereafter inoculations. Bioluminescence detection procedures was performed as previously described ([…] et al. Cancer Res. 69:1302-1313, herein incorporated by reference in its entirety). Normalized photon flux represents the ratio of the photon flux detected each week after inoculations and the photon flux detected before inoculation.

The test system of another series is FOXO3A. Briefly: Immunofluorescence staining of FOXO3A localization in SUM159 cells. Type of series: cell-based, human. The procedure: The non-treated SUM159 cells presented 80% of cells positive in the cytoplasm for FOXOA3. […] The change in FOXOA3 cellular localation from the cytoplasm to the nucleus indicates an activation of FOXOA3 protein.
as §3

Structures are written as SMILES. “Also recorded” adds a separate entry of the source. Like-named read-outs stand apart in the source and are kept apart here.

With `CC(C)Cc1ccc([C@@H](C)C(=O)NS(C)(=O)=O)cc1` [Repertaxin], the “percent of CXCR1-positive cells” value in series [1] was “massive decrease”. Besides, the “toxicity in clinical studies” value in series [2] is “lack of toxicity”; in [2] (listed as Repartaxin), “little toxicity”. The “ALDEFLUOR-positive population of cells with PTEN deletion or FAK overexpression” value in series [3] is recorded as “did not alter the proportion of ALDEFLUOR-positive SUM159 PTEN knockdown cells”; in [3] (listed as repertaxin), “maintenance of the ALDELFUOR-positive populations”. Further, the “FAK and AKT activity / FOXO3A activation in cells with PTEN deletion or FAK overexpression” value is “did not induce FOXO3A activation” in [3]; “PTEN knockdown blocked the effect of repertaxin treatment on FAK and AKT activity; also recorded: PTEN deletion and FAK overexpression blocked the effect of repertaxin treatment on FAK and AKT activity” in [3] (listed as repertaxin). In addition, in [3] (3 days of treatment), the “cell viability (MTT) of cells with PTEN deletion or FAK overexpression” value was “did not display any decrease in cell viability; also recorded: developed resistance to repertaxin”. For the same compound, the “tumor size / tumor growth compared to the control” value is on record as “moderate impact on tumor growth” in series [4], “no significant difference” in [4] (listed as Reperataxin) and “no difference” in series [4] (listed as repertaxin). Moreover, the “ALDH1-positive cells / ALDH1 expression in treated tumors” value in the series on ALDH1 is reported as “decrease in ALDH1-positive cells; also recorded: decrease of ALDH1 expression”. Moreover, the results for the “cell viability (MTT)” value with HCC1954 cells [5], in the series with MDA-MB-453 cells and with MDA-MB-453 cells (listed as repertaxin) were “decrease in cell viability was observed after 3 days of treatment; also recorded: significant reduction”, “no effect; also recorded: did not have any effect on cell viability” and “did not effect the viability”, respectively. Also, the “cells with membranous phospho-FAK expression in treated tumors” value in the series on phospho-FAK was “abolished; also recorded: no expression was detected”. Also, in series [6], the “FAK Tyr397 and AKT Ser473 phosphorylation (western blot)” value was “No modification”. Moreover, in series [7], the “mammosphere formation by normal mammary epithelial cells” value is reported as “significantly decreased mammosphere formation; also recorded: significant decrease of mammosphere-initiating cells”. In addition, the “metastasis formation (normalized photon flux)” value in the series on HCC1954 cells [8] was “significantly reduced metastasis formation”; with HCC1954 cells [8] (listed as repertaxin) it was “statistically significant decrease in metastasis formation”. For the same compound, the “cells positive in the nucleus for FOXOA3” value in the series with FOXO3A (SUM159, 100 nM, 2 days) stood at 80%. In addition, in the series on FOXO3A (sorted CXCR1-positive cells, listed as repertaxin), the “FOXO3A localization (immunofluorescence)” value is given as “shuttled to the nucleus; also recorded: re-localization of FOXO3A to the nucleus”.
